Source: patent US9603364B2 (Dow AgroSciences LLC, priority 2013, dated 2017)

Tests used:
Experiment in all cases: General post-emergent herbicidal activity, foliar application
Type in all cases: in vivo
[1] = system: Chenopodium album L. (lambsquarters, common)
Procedure, shortened: (§1)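 Visual injury ratings on a scale of 0 (none) to 100% (complete kill), taken 14 days after foliar post-emergence treatment of greenhouse plants and compared with untreated plants, were fitted by probit analysis to give GR20, GR50 and GR80 doses; some GR80 values are extrapolated from the slope. Sprays contained crop oil concentrate and surfactant, with rates from the highest down to 1/16×.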

[2] = system: Amaranthus retroflexus L. (pigweed, redroot)
Procedure, shortened: as §1

[3] = system: Euphorbia heterophylla L. (poinsettia, wild)
Procedure, shortened: as §1

[4] = system: Echinochloa crus-galli (L.) Beauv. (barnyardgrass)
Procedure, shortened: as §1

[5] = system: Viola tricolor L. (pansy)
Procedure, shortened: as §1

[6] = system: Helianthus annuus L. (sunflower, common)
Procedure, shortened: as §1

[7] = system: Zea mays L. (corn); settings: 336 h, scored after 14 days, read-out: % Visual Growth Reduction ZEAMX
Procedure, shortened: (§2)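 Compounds in acetone/DMSO (97:3) diluted into aqueous spray with isopropanol, Atplus 411F crop oil and Triton X-155; top rate plus 1/2×–1/16× serial rates applied to foliage, solvent blank as control. Greenhouse, sub-irrigated; visual injury versus untreated plants scored 0–100% (100 = complete kill) after 14 days.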

[8] = system: Oryza sativa L. (rice); settings: Oryza sativa, 336 h, scored after 14 days, read-out: % Visual Growth Reduction ORYSA
Procedure, shortened: as §2

[9] = calculated by probit analysis, dose for 80% visual injury, may be extrapolated

## Nc1c(F)c(CF)nc(C(=O)O)c1Cl [Compound F36, 4-Amino-3-chloro-5-fluoro-6-(fluoromethyl)picolinic acid]
[1]; Chenopodium album, 336 h, 35 g ai/ha, foliar post-emergent, scored after 14 days, read-out: % Visual Growth Reduction CHEAL
  pest or weed control at 35 g/ha: 80%
[1]; Chenopodium album, 336 h, 70 g ai/ha, foliar post-emergent, scored after 14 days, read-out: % Visual Growth Reduction CHEAL
  pest or weed control at 70 g/ha: 100%
[1]; Chenopodium album, 336 h, 140 g ai/ha, foliar post-emergent, scored after 14 days, read-out: % Visual Growth Reduction CHEAL
  pest or weed control at 140 g/ha: 100%
[1]; Chenopodium album, 336 h, 280 g ai/ha, foliar post-emergent, scored after 14 days, read-out: % Visual Growth Reduction CHEAL
  pest or weed control at 280 g/ha: 100%
[1]; [9]
  GR80 Value CHEAL: 36.1 g ai/ha
[2]; Amaranthus retroflexus, 336 h, 35 g ai/ha, foliar post-emergent, scored after 14 days, read-out: % Visual Growth Reduction AMARE
  pest or weed control at 35 g/ha: 100%
[2]; Amaranthus retroflexus, 336 h, 70 g ai/ha, foliar post-emergent, scored after 14 days, read-out: % Visual Growth Reduction AMARE
  pest or weed control at 70 g/ha: 100%
[2]; Amaranthus retroflexus, 336 h, 140 g ai/ha, foliar post-emergent, scored after 14 days, read-out: % Visual Growth Reduction AMARE
  pest or weed control at 140 g/ha: 100%
[2]; Amaranthus retroflexus, 336 h, 280 g ai/ha, foliar post-emergent, scored after 14 days, read-out: % Visual Growth Reduction AMARE
  pest or weed control at 280 g/ha: 100%
[2]; [9]
  GR80 Value AMARE: <17.5 g ai/ha
[3]; Euphorbia heterophylla, 336 h, 35 g ai/ha, foliar post-emergent, scored after 14 days, read-out: % Visual Growth Reduction EPHHL
  pest or weed control at 35 g/ha: 100%
[3]; Euphorbia heterophylla, 336 h, 70 g ai/ha, foliar post-emergent, scored after 14 days, read-out: % Visual Growth Reduction EPHHL
  pest or weed control at 70 g/ha: 100%
[3]; Euphorbia heterophylla, 336 h, 140 g ai/ha, foliar post-emergent, scored after 14 days, read-out: % Visual Growth Reduction EPHHL
  pest or weed control at 140 g/ha: 100%
[3]; Euphorbia heterophylla, 336 h, 280 g ai/ha, foliar post-emergent, scored after 14 days, read-out: % Visual Growth Reduction EPHHL
  pest or weed control at 280 g/ha: 100%
[3]; [9]
  GR80 Value EPHHL: <17.5 g ai/ha
[4]; Echinochloa crus-galli, 336 h, 35 g ai/ha, foliar post-emergent, scored after 14 days, read-out: % Visual Growth Reduction ECHCG
  pest or weed control at 35 g/ha: 50%
[4]; Echinochloa crus-galli, 336 h, 70 g ai/ha, foliar post-emergent, scored after 14 days, read-out: % Visual Growth Reduction ECHCG
  pest or weed control at 70 g/ha: 50%
[4]; Echinochloa crus-galli, 336 h, 140 g ai/ha, foliar post-emergent, scored after 14 days, read-out: % Visual Growth Reduction ECHCG
  pest or weed control at 140 g/ha: 80%
[4]; Echinochloa crus-galli, 336 h, 280 g ai/ha, foliar post-emergent, scored after 14 days, read-out: % Visual Growth Reduction ECHCG
  pest or weed control at 280 g/ha: 95%
[4]; [9]
  GR80 Value ECHCG: 132 g ai/ha
[5]; Viola tricolor, 336 h, 35 g ai/ha, foliar post-emergent, scored after 14 days, read-out: % Visual Growth Reduction VIOTR
  pest or weed control at 35 g/ha: 10%
[5]; Viola tricolor, 336 h, 70 g ai/ha, foliar post-emergent, scored after 14 days, read-out: % Visual Growth Reduction VIOTR
  pest or weed control at 70 g/ha: 20%
[5]; Viola tricolor, 336 h, 140 g ai/ha, foliar post-emergent, scored after 14 days, read-out: % Visual Growth Reduction VIOTR
  pest or weed control at 140 g/ha: 80%
[5]; Viola tricolor, 336 h, 280 g ai/ha, foliar post-emergent, scored after 14 days, read-out: % Visual Growth Reduction VIOTR
  pest or weed control at 280 g/ha: 75%
[5]; [9]
  GR80 Value VIOTR: 246 g ai/ha
[6]; Helianthus annuus, 336 h, 35 g ai/ha, foliar post-emergent, scored after 14 days, read-out: % Visual Growth Reduction HELAN
  pest or weed control at 35 g/ha: 70%
[6]; Helianthus annuus, 336 h, 70 g ai/ha, foliar post-emergent, scored after 14 days, read-out: % Visual Growth Reduction HELAN
  pest or weed control at 70 g/ha: 80%
[6]; Helianthus annuus, 336 h, 140 g ai/ha, foliar post-emergent, scored after 14 days, read-out: % Visual Growth Reduction HELAN
  pest or weed control at 140 g/ha: 85%
[6]; Helianthus annuus, 336 h, 280 g ai/ha, foliar post-emergent, scored after 14 days, read-out: % Visual Growth Reduction HELAN
  pest or weed control at 280 g/ha: 90%
[6]; [9]
  GR80 Value HELAN: 70 g ai/ha
[7]; 35 g ai/ha
  plant injury at 35 g/ha: 0%
[7]; 70 g ai/ha
  plant injury at 70 g/ha: 20%
[7]; 140 g ai/ha
  plant injury at 140 g/ha: 40%
[7]; 280 g ai/ha
  plant injury at 280 g/ha: 70%
[8]; 35 g ai/ha
  plant injury at 35 g/ha: 0%
[8]; 70 g ai/ha
  plant injury at 70 g/ha: 10%
[8]; 140 g ai/ha
  plant injury at 140 g/ha: 20%
[8]; 280 g ai/ha
  plant injury at 280 g/ha: 30%

## COC(=O)c1nc(C(C)CF)c(F)c(N)c1Cl (stereo not shown) [Compound F37, methyl 4-amino-3-chloro-5-fluoro-6-(1-fluoropropan-2-yl)picolinate]
[1]; Chenopodium album, 336 h, 132 g ai/ha, foliar post-emergent, scored after 14 days, read-out: % Visual Growth Reduction CHEAL
  pest or weed control at 132 g/ha: 0%
[2]; Amaranthus retroflexus, 336 h, 132 g ai/ha, foliar post-emergent, scored after 14 days, read-out: % Visual Growth Reduction AMARE
  pest or weed control at 132 g/ha: 50%
[3]; Euphorbia heterophylla, 336 h, 132 g ai/ha, foliar post-emergent, scored after 14 days, read-out: % Visual Growth Reduction EPHHL
  pest or weed control at 132 g/ha: 100%
[4]; Echinochloa crus-galli, 336 h, 132 g ai/ha, foliar post-emergent, scored after 14 days, read-out: % Visual Growth Reduction ECHCG
  pest or weed control at 132 g/ha: 0%
[5]; Viola tricolor, 336 h, 132 g ai/ha, foliar post-emergent, scored after 14 days, read-out: % Visual Growth Reduction VIOTR
  pest or weed control at 132 g/ha: 0%
[6]; Helianthus annuus, 336 h, 132 g ai/ha, foliar post-emergent, scored after 14 days, read-out: % Visual Growth Reduction HELAN
  pest or weed control at 132 g/ha: 80%
[7]; 132 g ai/ha
  plant injury at 132 g/ha: 0%
[8]; 132 g ai/ha
  plant injury at 132 g/ha: 0%
